Laboratory results published in article PMC4744546 (Pharmaceutical research, 2015).
Like-named read-outs stand apart in the source and are kept apart here.

Assays:
[1] = Pharmacokinetic study of oral resveratrol with or without curcumin in Bcrp1; format: in vivo, Bcrp1 (−/−) mice (FVB background); settings: for Cmax / Tmax / half-life: FVB, mouse, whole blood, po, 20 mg/kg, oral resveratrol 20mg/kg; for Cmax: blood
[2] = format: in vivo, FVB wild-type mice
[3] = humans; ref [16]; cited from earlier work
[4] = Characterization of resveratrol metabolites in pooled human liver S9 fraction; format: in vitro ADME
[5] = test system: colon cancer cell lines; settings: ref [18]; cited from earlier work
[6] = test system: BCRP; settings: oral sulfasalazine, curcumin pretreatment vs none, ref [37]; cited from earlier work
[7] = target: T1, BCRP (Homo sapiens, UniProt Q9UNQ0); experiment: Effect of curcumin on BCRP-mediated efflux; format: cell-based; settings: UGT1A9-overexpressing HeLa cells
T1 sequence (Q9UNQ0 1-655): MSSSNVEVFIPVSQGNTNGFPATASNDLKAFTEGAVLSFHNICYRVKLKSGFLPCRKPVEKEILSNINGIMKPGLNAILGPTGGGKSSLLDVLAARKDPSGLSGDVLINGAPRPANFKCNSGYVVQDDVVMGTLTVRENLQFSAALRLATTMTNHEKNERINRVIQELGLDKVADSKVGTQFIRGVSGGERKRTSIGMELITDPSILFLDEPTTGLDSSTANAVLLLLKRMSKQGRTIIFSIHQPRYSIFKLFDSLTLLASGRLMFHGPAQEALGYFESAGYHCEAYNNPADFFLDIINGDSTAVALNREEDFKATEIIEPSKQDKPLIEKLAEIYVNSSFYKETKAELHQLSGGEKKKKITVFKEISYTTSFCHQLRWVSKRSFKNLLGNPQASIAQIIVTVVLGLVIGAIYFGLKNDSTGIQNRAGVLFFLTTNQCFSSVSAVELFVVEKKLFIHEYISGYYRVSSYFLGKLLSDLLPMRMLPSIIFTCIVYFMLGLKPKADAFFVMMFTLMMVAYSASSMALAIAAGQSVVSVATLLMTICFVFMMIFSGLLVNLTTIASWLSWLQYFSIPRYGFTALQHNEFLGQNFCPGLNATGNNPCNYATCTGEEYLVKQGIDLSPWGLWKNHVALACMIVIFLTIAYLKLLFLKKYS

[8] = target: human MRP2 (Homo sapiens, UniProt Q92887); experiment: Effect of curcumin on MRP2-mediated efflux; format: cell-based; settings: MRP2-overexpressing MDCK II-UGT1A1 cells
[9] = test system: human MRP2-overexpressing MDCK II-UGT1A1 cells; experiment: Effect of curcumin on fmet of resveratrol conjugates in MDCK II cells; format: cell-based; settings: 4 h
[10] = FVB, mouse, whole blood, po, 20 mg/kg
[11] = WT mice with curcumin vs without, resveratrol 20mg/kg oral
[12] = curcumin 50nM, resveratrol […], 4 h, p<0.01
[13] = curcumin 50nM, resveratrol […], 4 h, p<0.05

Sequence of human MRP2 (Q92887 whole entry): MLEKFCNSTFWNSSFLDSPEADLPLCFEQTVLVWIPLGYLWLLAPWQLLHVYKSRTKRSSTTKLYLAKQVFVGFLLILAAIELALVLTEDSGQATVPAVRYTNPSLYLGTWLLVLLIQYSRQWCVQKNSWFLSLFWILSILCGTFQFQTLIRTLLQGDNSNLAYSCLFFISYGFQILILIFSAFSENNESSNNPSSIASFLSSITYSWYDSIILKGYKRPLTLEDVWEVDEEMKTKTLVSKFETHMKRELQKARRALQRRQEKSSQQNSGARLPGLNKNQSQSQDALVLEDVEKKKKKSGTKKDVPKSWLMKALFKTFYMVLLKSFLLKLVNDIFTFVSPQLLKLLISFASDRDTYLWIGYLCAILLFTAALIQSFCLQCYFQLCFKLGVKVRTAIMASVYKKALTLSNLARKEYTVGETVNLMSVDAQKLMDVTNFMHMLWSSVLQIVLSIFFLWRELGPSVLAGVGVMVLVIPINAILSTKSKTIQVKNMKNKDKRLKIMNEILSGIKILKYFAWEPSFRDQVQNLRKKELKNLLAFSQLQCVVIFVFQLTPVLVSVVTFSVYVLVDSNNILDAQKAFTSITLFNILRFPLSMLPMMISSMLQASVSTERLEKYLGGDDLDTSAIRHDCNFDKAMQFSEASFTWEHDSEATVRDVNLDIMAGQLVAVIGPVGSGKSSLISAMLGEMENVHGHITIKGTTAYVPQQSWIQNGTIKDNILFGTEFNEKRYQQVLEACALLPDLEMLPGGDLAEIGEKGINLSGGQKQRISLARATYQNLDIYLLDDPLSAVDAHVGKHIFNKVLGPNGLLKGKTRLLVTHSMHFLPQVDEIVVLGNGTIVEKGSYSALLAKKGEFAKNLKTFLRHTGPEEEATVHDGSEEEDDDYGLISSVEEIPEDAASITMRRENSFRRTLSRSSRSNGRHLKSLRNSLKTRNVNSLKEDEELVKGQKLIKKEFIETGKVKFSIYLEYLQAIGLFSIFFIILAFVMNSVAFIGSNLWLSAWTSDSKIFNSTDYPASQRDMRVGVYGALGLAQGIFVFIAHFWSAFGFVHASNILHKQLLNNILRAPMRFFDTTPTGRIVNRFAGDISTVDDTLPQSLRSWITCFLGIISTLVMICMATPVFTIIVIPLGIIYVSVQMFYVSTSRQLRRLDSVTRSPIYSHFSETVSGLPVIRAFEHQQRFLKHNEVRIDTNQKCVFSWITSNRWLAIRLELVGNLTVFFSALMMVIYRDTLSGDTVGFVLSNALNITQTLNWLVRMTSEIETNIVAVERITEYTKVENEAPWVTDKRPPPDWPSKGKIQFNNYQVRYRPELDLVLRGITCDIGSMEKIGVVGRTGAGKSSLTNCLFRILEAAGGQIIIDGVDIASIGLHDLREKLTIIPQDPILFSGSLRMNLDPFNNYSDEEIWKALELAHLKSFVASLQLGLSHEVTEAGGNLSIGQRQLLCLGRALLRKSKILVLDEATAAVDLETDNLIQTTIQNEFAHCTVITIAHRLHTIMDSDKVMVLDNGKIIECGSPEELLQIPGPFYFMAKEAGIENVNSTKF

SMILES: Oc1ccc(/C=C/c2cc(O)cc(O)c2)cc1 [Resveratrol, trans-3,5,4′-trihydroxystilbene]
- Cmax ([1]; Bcrp1 (−/−) with curcumin): 390 ± 170 nM
- Cmax ([1]; Bcrp1 (−/−) without curcumin): 790 ± 440 nM
- Tmax ([1]; Bcrp1 (−/−) without curcumin): 0.31 ± 0.12 h
- change in AUC with curcumin ([1]; curcumin-treated vs curcumin-untreated Bcrp1 (−/−) mice): decreased moderately
- Cmax [2, 10]: 600 ± 260 nM
- increase of AUC with curcumin [2, 11]: 2 fold
- increase of maximum blood concentration (Cmax) with curcumin [2, 11]: ~100%

SMILES: O=C(O)[C@H]1O[C@@H](Oc2ccc(/C=C/c3cc(O)cc(O)c3)cc2)[C@H](O)[C@@H](O)[C@@H]1O [RES-4′-O-G, resveratrol-4′-O-glucuronide]
- peak plasma levels relative to that of resveratrol [3]: 3- to 8 fold
- amount of metabolite generated relative to the 3-O conjugate [4]: about one fifth
- IC50 of cell growth inhibition compared to parent compound [5]: comparable

SMILES: O=C(O)[C@H]1O[C@@H](Oc2cc(O)cc(/C=C/c3ccc(O)cc3)c2)[C@H](O)[C@@H](O)[C@@H]1O [R-3-G, resveratrol-3-O-glucuronide]
- IC50 of cell growth inhibition compared to parent compound [5]: comparable

SMILES: O=C(O)c1cc(/N=N/c2ccc(S(=O)(=O)Nc3ccccn3)cc2)ccc1O [SASP, sulfasalazine]
- plasma level in mice pretreated with curcumin [6]: two folds higher

SMILES: COc1cc(/C=C/C(=O)CC(=O)/C=C/c2ccc(O)c(OC)c2)ccc1O [curcumin, diferuoyl methane]
- decrease of CL of RES-3-O-G [7, 12]: 28%
- decrease of CL of RES-3-O-S [7, 13]: 35%
- inhibitory effect on CL at higher concentration ([7]; curcumin 100nM vs 50nM): no greater extent of inhibitory effect
- inhibitory effect on CL of RES-4′-G ([7]; curcumin 100nM, 50nM, resveratrol […], 4 h): did not show any significant inhibitory effect
- reduction of CL of RES-3-O-G ([8]; curcumin 50nM, resveratrol […], 4 h, p<0.001): 46%
- reduction of CL of RES-4′-O-G [8, 12]: 50%
- reduction of CL of RES-3-O-S [8, 13]: 53%
- reduction of CL of RES-4′-O-S [8, 13]: 54%
- inhibitory effect on CL at higher concentration ([8]; curcumin 100nM vs 50nM): no greater concentration-dependent inhibitory effect
- decrease in fmet of RES-4′-O-G ([9]; curcumin 200nM, p<0.05): ~20%
- reduction in fmet of RES-3-O-G ([9]; curcumin 200nM, p>0.05): ~12%
- decrease in fmet of RES-4′-O-G ([9]; curcumin 500nM, p<0.01): approximately 24%
- reduction in fmet of RES-3-O-G ([9]; curcumin 500nM, p<0.05): ~14%
- decrease in fmet of RES-4′-O-G ([9]; curcumin 1000nM, p<0.01): about 33%
- reduction in fmet of RES-3-O-G ([9]; curcumin 1000nM, p<0.05): approximately 24%
- change in fmet values for all metabolites ([9]; lower concentrations of curcumin (100nM, 50nM)): no significant change

SMILES: O=S(=O)(O)Oc1cc(O)cc(C=Cc2ccc(O)cc2)c1 [R-3-S, resveratrol-3-O-sulfate]
- peak plasma levels relative to that of resveratrol [3]: 3- to 8 fold
- Cmax ([1]; Bcrp1 (−/−) with curcumin): 1800 ± 170 nM
- Cmax ([1]; Bcrp1 (−/−) without curcumin): 2400 ± 980 nM
- Tmax ([1]; Bcrp1 (−/−) with curcumin): 0.25 h
- Tmax ([1]; Bcrp1 (−/−) without curcumin): 0.25 h
- half-life ([1]; t1/2, Bcrp1 (−/−) with curcumin): 5.82 ± 2.55 h
- half-life ([1]; t1/2, Bcrp1 (−/−) without curcumin): 4.41 ± 0.44 h
- Cmax [2, 10]: 1320 ± 710 nM
- Tmax ([2]; FVB, mouse, whole blood, po, 20 mg/kg, Tmax, WT with curcumin, oral resveratrol 20mg/kg): 0.31 ± 0.12 h
- half-life ([2]; FVB, mouse, whole blood, po, 20 mg/kg, t1/2, WT control, oral resveratrol 20mg/kg without curcumin): 3.77 ± 1.74 h
- half-life ([2]; FVB, mouse, whole blood, po, 20 mg/kg, t1/2, WT with curcumin, oral resveratrol 20mg/kg): 9.32 ± 5.64 h
